# Laboratory results: patent publication US6984493B1, “Method for examining the involvement of opioid peptides in prurtis” (Toray Industries, Inc., priority 2000, dated 2006)
# Tested on: severe itching
# Procedure: One capsule of a κ-opioid agonist 17-cyclopropylmethyl-3, 14β-dihydroxy-4,5α-epoxy-6β-(N-methyl-trans-3-(3-furyl)acrylamide) morphinan hydrochloride capsule (10 μg/body) was administered to each of the selected patients. […] To quantitatively determine the severity of itching, visual analogue scale (VAS) was employed, in which the severity of itching was determined on a straight line of 0 to 100 mm where no itching was rated as “0” and the supposable most severe itching was rated as “100”.
structure (smiles),measurement,setting,value
"CN(C(=O)/C=C/c1ccoc1)[C@@H]1CC[C@@]2(O)[C@H]3Cc4ccc(O)c5c4[C@@]2(CCN3CC2CC2)[C@H]1O5.Cl (relative stereo) [17-cyclopropylmethyl-3, 14β-dihydroxy-4,5α-epoxy-6β-(N-methyl-trans-3-(3-furyl)acrylamide) morphinan hydrochloride]","visual analogue scale (VAS) of severity of itching, mean of the four subjects","after 4 to 24 hours from the administration, one capsule 10 μg/body, four patients with severe itching, VAS 75 mm before administration, scale 0 to 100 mm",0 mm
same,relief of itching,"after two hours from the administration, all administered patients (four), one capsule 10 μg/body",itching was relieved
same,antipruritic effect on administration (summary statement referring to Example 2),as shown in Example 2,apparent antipruritic effect
same,duration of antipruritic effect (continued until),"time from the administration, all administered patients (four), one capsule 10 μg/body",24 h
